# Test results: ChEMBL document CHEMBL6074680, “Structure-Based Discovery of a Series of Covalent, Orally Bioavailable, and Selective BFL1 Inhibitors” (J Med Chem, 2024)
# Tests used:
# [1] = biological target: T1, BCL2A1/BID (Homo sapiens, UniProt Q16548); assay: Inhibition of BFL-1/ BH3 (unknown origin) interaction incubated for 2 hrs by TR-FRET assay; format: protein assay
# T1 sequence (Q16548 whole entry): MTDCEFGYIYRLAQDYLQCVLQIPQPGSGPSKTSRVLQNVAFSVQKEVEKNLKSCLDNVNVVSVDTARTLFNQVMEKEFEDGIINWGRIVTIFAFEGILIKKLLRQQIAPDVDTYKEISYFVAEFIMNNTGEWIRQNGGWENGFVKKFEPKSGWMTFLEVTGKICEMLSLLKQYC
# T1 sequence (P55957 whole entry): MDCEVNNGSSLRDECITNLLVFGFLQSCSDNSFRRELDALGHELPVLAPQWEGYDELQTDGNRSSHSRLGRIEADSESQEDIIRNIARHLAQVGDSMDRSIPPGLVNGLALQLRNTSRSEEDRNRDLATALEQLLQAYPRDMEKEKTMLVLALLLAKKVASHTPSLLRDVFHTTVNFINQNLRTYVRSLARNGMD
# [2] = tested on: SU-DHL-1; assay: Induction of apoptosis in human SU-DHL-1 cells assessed as caspase activation in presence of AZD5991 incubated for 6 hrs by caspaseGlo 3/7 reagent based assay; format: functional, cell-based; conditions: SU-DHL-1, 6 h
# [3] = biological target: Induced myeloid leukemia cell differentiation protein Mcl-1 (Homo sapiens, UniProt Q07820); assay: Inhibition of MCL1 (unknown origin) by FRET assay
# Induced myeloid leukemia cell differentiation protein Mcl-1, sequence (Q07820 whole entry): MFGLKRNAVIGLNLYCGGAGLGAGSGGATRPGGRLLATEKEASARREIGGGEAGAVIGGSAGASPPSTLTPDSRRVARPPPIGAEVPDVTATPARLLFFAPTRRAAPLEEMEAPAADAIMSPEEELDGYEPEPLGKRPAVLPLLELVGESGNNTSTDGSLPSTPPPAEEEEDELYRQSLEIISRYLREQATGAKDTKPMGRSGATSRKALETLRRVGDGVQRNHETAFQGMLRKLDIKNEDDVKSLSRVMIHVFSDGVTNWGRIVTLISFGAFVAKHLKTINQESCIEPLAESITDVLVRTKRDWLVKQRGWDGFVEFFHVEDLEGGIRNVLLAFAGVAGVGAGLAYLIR
# [4] = Lipophilicity, log D of compound in 1-octanol at pH 7.4 incubated for 4 hrs by HPLC-UV analysis; format: physicochemical; conditions: 1-octanol / aqueous phase at pH 7.4, pH 7.4
# [5] = Metabolic stability in rat hepatocytes assessed as intrinsic clearance measured per 10^6 cells; format: ADME, cell-based, Hepatocyte
# [6] = Metabolic stability in mouse hepatocytes assessed as intrinsic clearance measured per 10^6 cells; format: ADME, cell-based, Hepatocyte; conditions: read-out: CLH
# [7] = Metabolic stability in human hepatocytes assessed as intrinsic clearance measured per 10^6 cells; format: ADME, cell-based, Hepatocyte; conditions: read-out: CLH
# [8] = Apparent permeability across apical to basolateral side in human Caco-2 cells measured upto 120 mins by LC-MS/MS analysis; format: ADME, cell-based
# [9] = tested on: SU-DHL-1; assay: Antiproliferative activity against human SU-DHL-1 cells assessed as cell viability incubated for 24 hrs by celltiter-glo assay; format: functional, cell-based; conditions: SU-DHL-1, 24 h
# [10] = biological target: Bcl-2-like protein 1 (Homo sapiens, UniProt Q07817); assay: Inhibition of Bcl-Xl (unknown origin) by FRET assay
# Bcl-2-like protein 1, sequence (Q07817 whole entry): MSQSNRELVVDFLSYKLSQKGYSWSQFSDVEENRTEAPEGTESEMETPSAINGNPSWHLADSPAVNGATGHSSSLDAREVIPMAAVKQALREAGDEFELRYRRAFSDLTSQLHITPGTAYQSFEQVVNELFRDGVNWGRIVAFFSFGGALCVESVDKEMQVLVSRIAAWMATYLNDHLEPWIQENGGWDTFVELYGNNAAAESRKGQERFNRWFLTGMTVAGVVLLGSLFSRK
# [11] = biological target: Apoptosis regulator Bcl-2 (Homo sapiens, UniProt P10415); assay: Inhibition of BCL2 (unknown origin) by FRET assay
# Apoptosis regulator Bcl-2, sequence (P10415 whole entry): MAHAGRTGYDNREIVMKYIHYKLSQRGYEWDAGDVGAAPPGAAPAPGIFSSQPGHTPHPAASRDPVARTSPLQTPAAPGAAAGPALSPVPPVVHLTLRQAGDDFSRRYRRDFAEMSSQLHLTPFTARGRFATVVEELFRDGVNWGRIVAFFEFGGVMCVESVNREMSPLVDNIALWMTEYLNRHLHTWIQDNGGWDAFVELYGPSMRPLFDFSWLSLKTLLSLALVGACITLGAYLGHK
# [12] = Volume of distribution at steady state in CD-1 mouse at 1 mg/kg, po or 0.5 mg/kg, iv measured upto 24 hrs by LC-MS/MS analysis; format: ADME, organism-based; conditions: in vivo
# [13] = Half life in CD-1 mouse at 1 mg/kg, po or 0.5 mg/kg, iv measured upto 24 hrs by LC-MS/MS analysis; format: ADME, organism-based; conditions: in vivo
# [14] = Oral bioavailability in CD-1 mouse at 1 mg/kg or 0.5 mg/kg measured upto 24 hrs by LC-MS/MS analysis; format: ADME, organism-based; conditions: in vivo
# [15] = AUC in CD-1 mouse at 1 mg/kg, po or 0.5 mg/kg, iv measured upto 24 hrs by LC-MS/MS analysis; format: ADME, organism-based; conditions: in vivo
# [16] = Cmax in CD-1 mouse at 1 mg/kg, po or 0.5 mg/kg, iv measured upto 24 hrs by LC-MS/MS analysis; format: ADME, organism-based; conditions: in vivo
# [17] = Plasma protein binding in mouse assessed as unbound fraction; format: ADME, cell-free
# [18] = Metabolic stability in human liver microsome assessed as intrinsic clearance; format: ADME; conditions: human liver microsomes, read-out: CLH
# [19] = GSH reactivity in PBS buffer at pH 7.4 assessed as half life by LC-UV/MS analysis; format: physicochemical
SMILES,IC50 [1],EC50 [2],logD at 4 h [4],other results
C=CC(=O)N(c1ccc(O[C@@H]2CC[C@@H](N)C2)cc1)[C@@H](CNS(C)(=O)=O)c1ccc(Cl)cc1,31 nM,350 nM,–,IC50 [3]: > 100000 nM
C=CC(=O)N(c1ccc(O[C@@H]2CC[C@@H](NC(=O)N[C@@H]3CCS(=O)(=O)C3)C2)c(F)c1)[C@@H](CC(N)=O)c1ccc(Cl)cc1,5 nM,79 nM,2.2,"hepatocyte CLint ([5]; rat hepatocytes, read-out: CLH): 74 µL/min/1e6 cells; hepatocyte CLint [6]: 45 µL/min/1e6 cells; hepatocyte CLint [7]: 25 µL/min/1e6 cells"
C=CC(=O)N(c1ccc(O[C@@H]2CC[C@@H](NC(=O)N[C@@H]3CCS(=O)(=O)C3)C2)c(Cl)c1)[C@@H](C)c1ccc(Cl)cc1,5.4 nM,38 nM,4.2,"hepatocyte CLint ([5]; rat hepatocytes, read-out: CLH): 55 µL/min/1e6 cells; hepatocyte CLint [6]: 42 µL/min/1e6 cells; hepatocyte CLint [7]: 11 µL/min/1e6 cells; Papp A→B at 2 h [8]: 16 ×10⁻⁶ cm/s; EC50 [9]: 48 nM; IC50 [10]: > 30000 nM; IC50 [11]: > 30000 nM; Vdss [12]: 4.1 L/kg; half-life [13]: 0.75 h; bioavailability [14]: 16%; AUC at 24 h [15]: 0.036 µM·h; Cmax [16]: 15 nM; fraction unbound [17]: 0.013"
C[C@@H](c1ccc(Cl)cc1)N(C(=O)/C=C/CN(C)C)c1ccc(O[C@@H]2CC[C@@H](N)C2)cc1,90 nM,–,–,–
C=CC(=O)N(c1ccc(O[C@@H]2CC[C@@H](NC(=O)N[C@@H]3CCS(=O)(=O)C3)C2)c(F)c1)[C@@H](CC(C)(C)O)c1ccc(Cl)cc1,4.2 nM,19 nM,3.1,"hepatocyte CLint ([5]; rat hepatocytes, read-out: CLH): 52 µL/min/1e6 cells; hepatocyte CLint [6]: 49 µL/min/1e6 cells; hepatocyte CLint [7]: 5.3 µL/min/1e6 cells; EC50 [9]: 49 nM"
C=CC(=O)N(c1ccc(O[C@@H]2CC[C@@H](NC(=O)NCCN(C)C)C2)c(Cl)c1)[C@@H](C)c1ccc(Cl)cc1,4.5 nM,28 nM,3.5,"hepatocyte CLint ([5]; rat hepatocytes, read-out: CLH): 17 µL/min/1e6 cells; hepatocyte CLint [6]: 42 µL/min/1e6 cells; hepatocyte CLint [7]: 9.8 µL/min/1e6 cells; EC50 [9]: 72 nM"
C=CC(=O)N(c1ccc(O[C@@H]2CC[C@@H](N)C2)c(C)c1)[C@@H](C)c1ccc(Cl)cc1,77 nM,650 nM,–,–
C=CC(=O)N(c1ccc(O[C@@H]2CC[C@@H](N)C2)cc1)[C@@H](COC)c1ccc(Cl)cc1,–,450 nM,–,IC50 [3]: > 100000 nM
CN1CCC[C@@H]1/C=C/C(=O)N(Cc1ccc(Cl)cc1)c1ccc(O[C@@H]2CC[C@@H](N)C2)cc1,240 nM,–,–,–
C=CC(=O)N(c1ccc(O[C@@H]2CC[C@@H](N)C2)c(C#N)c1)[C@@H](C)c1ccc(Cl)cc1,14 nM,120 nM,–,–
C=CC(=O)N(c1ccc(O[C@@H]2CC[C@@H](N)C2)cc1)[C@H](CNS(C)(=O)=O)c1ccc(Cl)cc1,2800 nM,> 10000 nM,–,–
C=CC(=O)N(c1ccc(O[C@@H]2CC[C@@H](N)C2)cc1F)[C@@H](C)c1ccc(Cl)cc1,48 nM,410 nM,–,–
C=CC(=O)N(c1cc(F)c(O[C@@H]2CC[C@@H](N)C2)cc1C)[C@@H](C)c1ccc(Cl)cc1,31 nM,530 nM,2.7,hepatocyte CLint ([5]; hepatocytes): 12 µL/min/1e6 cells; microsomal CLint [18]: 9.4 µL/min/mg; half-life [19]: 4.47 h
C=CC(=O)N(c1ccc(O[C@@H]2CC[C@@H](N)C2)cc1)[C@@H](CC(C)(C)O)c1ccc(Cl)cc1,33 nM,520 nM,–,IC50 [3]: > 100000 nM
C=CC(=O)N(c1ccc(O[C@@H]2CC[C@@H](N)C2)cc1OC)[C@@H](C)c1ccc(Cl)cc1,880 nM,2400 nM,–,–
C=CC(=O)N(c1ccc(O[C@@H]2CC[C@@H](NC(=O)N[C@H]3CCNC3)C2)cc1)[C@@H](C)c1ccc(Cl)cc1,29 nM,3100 nM,–,IC50 [3]: > 100000 nM
C=C(Cl)C(=O)N(Cc1ccc(C(F)(F)F)cc1)c1ccc(O[C@@H]2CC[C@@H](N)C2)cc1 (racemic),1000 nM,–,2.4,hepatocyte CLint ([5]; hepatocytes): 52 µL/min/1e6 cells; microsomal CLint [18]: 7.8 µL/min/mg; half-life [19]: 1.42 h
C=CC(=O)N(c1ccc(O[C@@H]2CC[C@@H](N)C2)cc1)[C@@H](CC(N)=O)c1ccc(Cl)cc1,43 nM,490 nM,–,IC50 [3]: > 100000 nM
C=CC(=O)N(c1ccc(O[C@@H]2CC[C@@H](N)C2)c(F)c1)[C@@H](CC(C)(C)O)c1ccc(Cl)cc1,11 nM,42 nM,1.5,"hepatocyte CLint ([5]; rat hepatocytes, read-out: CLH): 7.3 µL/min/1e6 cells; hepatocyte CLint [6]: 15 µL/min/1e6 cells; hepatocyte CLint [7]: 5.9 µL/min/1e6 cells; EC50 [9]: 58 nM"
C=CC(=O)N(c1ccc(O[C@@H]2CC[C@@H](NC(=O)NCCN(C)C)C2)cc1)[C@@H](C)c1ccc(Cl)cc1,50 nM,500 nM,–,–
CC#CC(=O)N(c1ccc(O[C@@H]2CC[C@@H](N)C2)cc1)[C@@H](C)c1ccc(Cl)cc1,300 nM,–,–,–
C=CC(=O)N(c1ccc(O[C@@H]2CC[C@@H](N)C2)cc1)[C@@H](C)c1ccc(Cl)cc1,–,1100 nM,–,–

# The next lines start with results.
IC50 [1],EC50 [2],logD at 4 h [4],SMILES,other results
> 10000 nM,–,–,C=C(C)C(=O)N(Cc1ccc(C(F)(F)F)cc1)c1ccc(O[C@@H]2CC[C@@H](N)C2)cc1 (racemic),–
> 7800 nM,–,–,C=C(F)C(=O)N(Cc1ccc(C(F)(F)F)cc1)c1ccc(O[C@@H]2CC[C@@H](N)C2)cc1 (racemic),–
33 nM,120 nM,–,C=CC(=O)N(c1ccc(O[C@@H]2CC[C@@H](N)C2)cc1)[C@H](c1ccc(Cl)cc1)c1cncnc1,–
6500 nM,–,–,CNS(=O)(=O)OCC(=O)N(Cc1ccc(Cl)cc1)c1ccc(O[C@@H]2CC[C@@H](N)C2)cc1,–
87 nM,910 nM,3.2,C=CC(=O)N(c1ccc(O[C@@H]2CC[C@@H](NC(=O)N[C@@H]3CCS(=O)(=O)C3)C2)c(F)c1)[C@@H](C)c1ccc(C(F)(F)F)c(C#N)c1,"hepatocyte CLint ([5]; rat hepatocytes, read-out: CLH): 262 µL/min/1e6 cells"
10 nM,110 nM,2.7,C[C@@H](c1ccc(Cl)cc1)N(C(=O)/C=C/CN(C)C)c1ccc(O[C@@H]2CC[C@@H](NC(=O)NC3CS(=O)(=O)C3)C2)c(F)c1,hepatocyte CLint [6]: 23 µL/min/1e6 cells; hepatocyte CLint [7]: 2.6 µL/min/1e6 cells; Papp A→B at 2 h [8]: < 11 ×10⁻⁶ cm/s; EC50 [9]: 110 nM; IC50 [10]: > 30000 nM; IC50 [11]: > 30000 nM; Vdss [12]: 4.6 L/kg; half-life [13]: 2.7 h; fraction unbound [17]: 0.085
17 nM,90 nM,–,C=CC(=O)N(c1ccc(O[C@@H]2CC[C@@H](N)C2)cc1)[C@@H](CCNS(C)(=O)=O)c1ccc(Cl)cc1,EC50 [9]: 130 nM
8.5 nM,83 nM,3.7,C=CC(=O)N(c1ccc(O[C@@H]2CC[C@@H](NC(=O)N[C@@H]3CCS(=O)(=O)C3)C2)c(F)c1)[C@@H](C)c1ccc(Cl)cc1,"hepatocyte CLint ([5]; rat hepatocytes, read-out: CLH): 59 µL/min/1e6 cells; hepatocyte CLint [6]: 69 µL/min/1e6 cells; hepatocyte CLint [7]: 7.4 µL/min/1e6 cells; Papp A→B at 2 h [8]: < 11 ×10⁻⁶ cm/s; EC50 [9]: 190 nM; IC50 [10]: > 30000 nM; IC50 [11]: > 30000 nM; Vdss [12]: 4 L/kg; half-life [13]: 3.1 h; bioavailability [14]: 37%; AUC at 24 h [15]: 0.19 µM·h; Cmax [16]: 53 nM; fraction unbound [17]: 0.027"
24 nM,120 nM,–,C=CC(=O)N(c1ccc(O[C@@H]2CC[C@@H](N)C2)c(Cl)c1)[C@@H](C)c1ccc(Cl)cc1,–
3.9 nM,30 nM,2.8,C=CC(=O)N(c1ccc(O[C@@H]2CC[C@@H](NC(=O)NCC(C)(C)N(C)C)C2)c(F)c1)[C@@H](C)c1ccc(Cl)cc1,"hepatocyte CLint ([5]; rat hepatocytes, read-out: CLH): 14 µL/min/1e6 cells; hepatocyte CLint [6]: 73 µL/min/1e6 cells; hepatocyte CLint [7]: 6.1 µL/min/1e6 cells; EC50 [9]: 87 nM"
40 nM,110 nM,–,C=CC(=O)N(c1ccc(O[C@@H]2CC[C@@H](NC(=O)NC3CCS(=O)(=O)C3)C2)cc1)[C@@H](C)c1ccc(Cl)cc1 (mixture of isomers),–
74 nM,610 nM,–,C=CC(=O)N(c1ccc(O[C@@H]2CC[C@@H](NC(=O)CCCN(C)C)C2)cc1)[C@@H](C)c1ccc(Cl)cc1,–
8.5 nM,52 nM,2.5,C[C@@H](c1ccc(Cl)cc1)N(C(=O)/C=C/CN(C)C)c1ccc(O[C@@H]2CC[C@@H](NC(=O)N[C@@H]3CCS(=O)(=O)C3)C2)c(F)c1,"hepatocyte CLint ([5]; rat hepatocytes, read-out: CLH): 28 µL/min/1e6 cells; hepatocyte CLint [6]: 17 µL/min/1e6 cells; hepatocyte CLint [7]: 1.5 µL/min/1e6 cells; EC50 [9]: 110 nM; IC50 [10]: > 30000 nM; IC50 [11]: > 30000 nM"
18 nM,140 nM,–,C=CC(=O)N(c1ccc(O[C@@H]2CC[C@@H](N)C2)cc1)[C@@H](C[C@H](C)O)c1ccc(Cl)cc1,EC50 [9]: 170 nM
